The data set relates to human serum protein. Briefly: Human serum protein binding measurement. In kind it is in vitro ADME. As to conditions: compared with NO2A compound. As for the experimental part: The labeling compounds were cultured in human serum (1 mL) at 37° C. for 10 min and 60 min, and loaded to PD-10 column (pre-conditioned with 1 mL of 1% BSA/0.1 M DTPA), swept under stream of PBS into 30 test tubes by 0.5 mL fractions each. The radioactivity of each test tube was measured with gamma counter, and […] of sample was collected from the respective test tubes. After impression on the paper filter and staining with Coomassie blue, the protein peaks were observed. By plotting a curve of radioactivity of the respective fractions and calculating protein binding percent, the result was obtained as shown in Table 3.

Structures are written as SMILES.

This is an account of results in US9012604B2, “Triazanonane derivatives or pharmaceutically acceptable salt thereof for enhanced fluorine-18 labeling” (Snur & DB Foundation, priority 2011, dated 2015).

Regarding `O=C(O)CCCN1CCN(CC(=O)O)CCN(CC(=O)O)CC1` [Example 1, 4,7-bis(carboxymethyl)-1,4,7-triazonane-1-butyric acid], the “binding to human serum protein relative to NO2A compound” value is “three times higher”.
